Values belong to the compound of their own block, whether it stands above or below them. Bridges are numbered along the chain shown (N, C = ends). Where no end group is shown, it is not given here. The star is where a group is joined. FITC = O=C1OC2(c3ccc(O)cc3Oc3cc(O)ccc32)c2ccc(NC(=S)*)cc21
How the values were obtained:
MDA-MB-435 cells = experiment: FACS analysis of FITC-peptide binding to siRNA-transfected MDA-MB-435 cells; type: cell-based, human; settings: 10 μM FITC peptide, 1 h at 4° C.
Method: MDA-MB-435 cells were transiently transfected with gC1qR/p32-specific or control siRNAs. […] The amount of fluorescence in living cells was analyzed by FACS. Cells incubated in the absence of peptide served as FITC negative control. Compared to control siRNA transfected cells, down-regulation of gC1qR/p32 expression (in the presence of gC1qR/p32 siRNA) caused a shift in the peak of Lyp-1 fluorescence but not control peptide fluorescence.
Cultured cells were detached with cell enzyme-free dissociation buffer (Gibco/Invitrogen) and collected in PBS containing 1% BSA (PBSB). Single cells suspensions from tumors were obtained as indicated above. For FACS staining, 2.5×10^5 cells were resuspended in 100 μl of PBSB and incubated with polyclonal anti-full-length gC1qR/p32 or rabbit IgG (20 μg/ml) in PBSB for 30 min at 4° C. The cells were washed in PBSB and stained with goat anti rabbit Alexa 488 (2.5 μg/ml) for 30 min at 4° C. For FACS analysis of bound FITC-peptides, cultured cells were detached as above and incubated with 10 μM of FITC-peptides in 10% FCS/DMEM for 1 hour at 4° C. After washes with PBSB, the cells were resuspended in PBS containing 2 μg/ml of propidium iodide (PI, Molecular Probes/Invitrogen) to distinguish between live and dead cells, and 10,000 cells per sample were analyzed using a BD Biosciences FACSort.

tumors [1] = settings: mouse, in vivo
Method: (§1) The peptides were allowed to circulate for 2 hrs and organs were collected and viewed under UV light (left panel) or white light (right panel). […] Fluorescence in each tissue was quantified with Image J software. Statistical analysis was performed with Student's t-test. […] The circulation time for the free peptides was 2 hrs, 15 min for the peptide-displaying phage, and 3 hrs for the peptide-coupled micelles. […] Representative fields from multiple sections of each of three tumors are shown.
(§2) Synthetic peptides labeled with fluorescein (Karmali et al. (2008)) (approximately 200 μg) were intravenously injected into tumor-bearing mice and allowed to circulate for 15 min to 2 hrs. Tissues were collected and observed under UV light (Illumatool Bright Light System LT-9900) or processed for immunofluorescence (Karmali et al. (2008)). To assess phage homing (Zhang et al., (2006)), 10^9 pfu of T7 phage were intravenously injected into tumor-bearing mice, and allowed to circulate for 15 min. The mice were perfused through the heart with PBS containing 1% BSA and tissues were harvested for immunofluorescence.

tumors [2] = experiment: In vivo peptide and phage homing (iRGD); settings: peptides 2 hrs, phage 15 min circulation
Method: as §1, §2

PPC1 cells = experiment: Phage internalization assay in PPC1 cells; type: cell-based, human
Text: Mice were maintained in accordance with institutional guidelines and the animal experiments were approved by the Animal Research Committees at University of California, Santa Barbara and San Francisco. transgenic tumor mice (Bardeesy and DePinho, (2002); Arbeit et al., Progressive squamous epithelial neoplasia in K14-human papillomavirus type 16 transgenic mice. J. Virol. 68, 4358-4368 (1994); Hanahan, Heritable formation of pancreatic β-cell tumors in transgenic mice expressing recombinant insulin/simian virus 40 oncogenes. Nature 315, 115-122 (1985)) and xenograft tumors generated by injecting BALB/c nude mice (Harlan Sprague Dawley, Indianapolis, Ind.) with 10^6 human cancer cells orthotopically, intracardiacly or into the brain and tibia were used. […] Phage homing studies in vivo and cell binding studies in vitro (Zhang et al., (2006)), immunofluorescence (Karmali et al. (2008)) and flow cytometry (Sugahara et al., Hyaluronan oligosaccharides induce CD44 cleavage and promote cell migration in CD44-expressing tumor cells. J. Biol. Chem. 278, 32259-32265 (2003)) were done as described. Whole body imaging was performed 3 hrs after injecting the Cy7-labelled micelles with the Odyssey Infrared Imaging System (LI-COR Biosciences, Lincoln, Nebr.). […] FAM-labeled peptides in tissues were quantified by measuring the fluorescence with Image J software. […]

mitochondrial membranes = settings: concentration of 10 μM; cited from earlier work

Compound: FITC-LyP-1: FITC conjugated LyP-1 peptide ({FITC}-CGNKRTRGC; disulfide 1-9 (inferred); not fully specified (C-terminus))
- FITC-peptide binding to cells after gC1qR/p32 siRNA versus control siRNA (MDA-MB-435 cells): reduction in the binding

- tumor homing over a control peptide (tumors [1]): 12 fold
Compound: N=C(N)NCCC[C@@H]1NC(=O)[C@@H](N)CSSC[C@@H](C(=O)O)NC(=O)[C@H](CC(=O)O)NC(=O)[C@@H]2CCCN2C(=O)CNC(=O)[C@H](CCCCN)NC(=O)[C@H](CC(=O)O)NC(=O)CNC1=O [iRGD]

Compound: RGD-4C: RGD peptide (SEQ ID NO:41) with strong affinity for αv integrins (RGDCCCC; homing peptide)
- distribution within tumor (confocal microscopy) (tumors [2]): accumulated only in and around tumor blood vessels
- phage internalization within PPC1 cells (PPC1 cells): nor did they internalize

Compound: D(KLAKLAK)2
- mitochondrial swelling (mitochondrial membranes): marked mitochondrial swelling

Source: patent US8753604B2, “Methods and compositions for synaphically-targeted treatment for cancer” (Sanford-Burnham Medical Research Institute, priority 2008, dated 2014)
